Measured values reported in patent US10829478B2, “5-[3-[piperazin-1-yl]-3-oxo-propyl]-imidazolidine-2,4-dione derivatives as ADAMTS 4 and 5 inhibitors for treating e.g. osteoarthritis” (Galapagos NV, priority 2016, dated 2020).
Read-outs that look alike come from different tables or passages of the source.

How the values were obtained:
human MMP13 [1] = target: T1, human MMP13 (Homo sapiens (Human), UniProt P45452); experiment: hMMP13 assay, Protocol 2 (390 MMP FRET Substrate I, Enzo enzyme); assay type: biochemical; conditions: Protocol 2, human MMP13 (Enzo Life Sciences), read-out: hMMP-13 potency IC50
Protocol: (§1) Human MMP13 is preactivated by incubated the enzyme in the same buffer complemented with 1 mM freshly prepared p-Aminophenylmercuric acetate (AMPA) for 1 h at 37° C.

human ADAMTS4 = human ADAMTS4 (Homo sapiens (Human), UniProt O75173); experiment: hADAMTS-4 TBIS-1 cleavage assay, Protocol 2; assay type: biochemical
human ADAMTS-5 = human ADAMTS-5 (Homo sapiens (Human), UniProt Q9UNA0); experiment: hADAMTS-5 TBIS-1 cleavage assay, Protocol 3; assay type: biochemical; conditions: 90 min at 37° C., read-out: hADAMTS-5 potency IC50
Protocol: The reaction is initiated by adding to the assay plate TBIS-1 (10 μL, 4.5 μM, Anaspec) in the same buffer.
Finally, the fluorescence is read on the Envision (Perkin Elmer) after an incubation of 90 min at 37° C. (Excitation 485 nm, emission 530).

rnADAMTS-5 (1-564-6H) = rnADAMTS-5 (1-564-6H) (Rattus norvegicus (Rat), UniProt Q6TY19); experiment: Rat ADAMTS-5 TBIS-1 cleavage assay; assay type: biochemical; conditions: 120 min at 37° C.; read-out: Rat ADAMTS-5 potency IC50
human TACE = human TACE (Homo sapiens (Human), UniProt P78536); experiment: biochemical
Protocol: Finally, the fluorescence is read on the Envision (Perkin Elmer) after an incubation of 75 min at room temperature (Excitation 485 nm, Emission 530).

human MMP14 = human MMP14 (Homo sapiens (Human), UniProt P50281); experiment: hMMP14 assay (390 MMP FRET Substrate I); assay type: biochemical; conditions: human MMP14 (Biomol), read-out: hMMP-14 potency IC50
Protocol: The basis for the assay is the cleavage of the substrate 390 MMP FRET Substrate I (Anaspec Cat #AS-27076) by human MMP14 (Biomol, Cat #SE-259).
The reaction is initiated by adding to the assay plate 390 MMP FRET Substrate I (10 μL, 2.5 μM) in the same buffer.
Finally, the fluorescence is read on the Envision (Perkin Elmer) after an incubation of 60 min at room temperature (Excitation 485 nm, Emission 530).

human ADAMTS6 = human ADAMTS6 (Homo sapiens (Human), UniProt Q9UKP5); experiment: hADAMTS-6 fluorescent based protease assay (520 MMP FRET substrate XII); assay type: biochemical; conditions: 37° C. for 2 h; read-out: hADAMTS-6 potency IC50
In short: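 ADAMTS6 (0.73 nM final) in 25 mM Tris pH 8.0, 0.05% CHAPS, 2.5 mM CaCl2 with compound dilution series (top 20 μM, 1/5 steps). Reaction started with 520 MMP FRET Substrate XII, incubated 2 h at 37 °C. Substrate cleavage read by fluorescence ex485/em530; IC50 determined.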

human MMP13 [2] = target: T1, human MMP13; experiment: hMMP13 assay, Protocol 1 (390 MMP FRET Substrate I, Chemicon enzyme); assay type: biochemical; conditions: Protocol 1, human MMP13 (Chemicon), read-out: hMMP-13 potency IC50
Protocol: as §1

[3] = Protocol 2, 180 min at 37° C., read-out: ADAMTS4 potency IC50

human TACE, sequence (P78536 215-671): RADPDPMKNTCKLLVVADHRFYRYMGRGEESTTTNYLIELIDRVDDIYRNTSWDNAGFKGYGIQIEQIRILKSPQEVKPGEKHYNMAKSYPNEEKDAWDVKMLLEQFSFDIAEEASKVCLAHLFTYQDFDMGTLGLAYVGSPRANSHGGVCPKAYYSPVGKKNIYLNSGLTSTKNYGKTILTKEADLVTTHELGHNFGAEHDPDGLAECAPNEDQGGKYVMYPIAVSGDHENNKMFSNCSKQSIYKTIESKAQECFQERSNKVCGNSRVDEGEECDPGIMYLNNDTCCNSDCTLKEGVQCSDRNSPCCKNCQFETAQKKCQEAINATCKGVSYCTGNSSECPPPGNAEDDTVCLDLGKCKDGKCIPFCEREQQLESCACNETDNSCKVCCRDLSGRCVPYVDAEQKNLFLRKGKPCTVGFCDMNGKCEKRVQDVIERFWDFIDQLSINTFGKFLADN
human ADAMTS-5, sequence (Q9UNA0 262-930): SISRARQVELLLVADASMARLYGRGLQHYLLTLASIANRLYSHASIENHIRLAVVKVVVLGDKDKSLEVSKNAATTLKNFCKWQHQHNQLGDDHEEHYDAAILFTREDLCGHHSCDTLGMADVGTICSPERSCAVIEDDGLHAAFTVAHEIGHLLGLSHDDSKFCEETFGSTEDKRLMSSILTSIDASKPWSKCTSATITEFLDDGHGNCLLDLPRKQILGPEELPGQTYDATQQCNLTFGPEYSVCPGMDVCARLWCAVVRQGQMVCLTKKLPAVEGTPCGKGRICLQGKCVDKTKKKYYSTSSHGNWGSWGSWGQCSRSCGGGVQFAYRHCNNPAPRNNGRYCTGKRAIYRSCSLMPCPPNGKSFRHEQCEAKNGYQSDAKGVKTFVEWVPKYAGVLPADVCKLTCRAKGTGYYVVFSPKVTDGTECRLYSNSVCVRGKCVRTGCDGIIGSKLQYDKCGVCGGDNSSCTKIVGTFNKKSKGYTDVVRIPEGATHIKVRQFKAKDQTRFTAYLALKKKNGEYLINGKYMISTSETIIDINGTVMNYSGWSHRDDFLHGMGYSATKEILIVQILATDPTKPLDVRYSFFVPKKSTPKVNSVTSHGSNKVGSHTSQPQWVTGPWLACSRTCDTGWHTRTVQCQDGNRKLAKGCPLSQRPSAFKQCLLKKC
rnADAMTS-5 (1-564-6H), sequence (Q6TY19 entry or part of it): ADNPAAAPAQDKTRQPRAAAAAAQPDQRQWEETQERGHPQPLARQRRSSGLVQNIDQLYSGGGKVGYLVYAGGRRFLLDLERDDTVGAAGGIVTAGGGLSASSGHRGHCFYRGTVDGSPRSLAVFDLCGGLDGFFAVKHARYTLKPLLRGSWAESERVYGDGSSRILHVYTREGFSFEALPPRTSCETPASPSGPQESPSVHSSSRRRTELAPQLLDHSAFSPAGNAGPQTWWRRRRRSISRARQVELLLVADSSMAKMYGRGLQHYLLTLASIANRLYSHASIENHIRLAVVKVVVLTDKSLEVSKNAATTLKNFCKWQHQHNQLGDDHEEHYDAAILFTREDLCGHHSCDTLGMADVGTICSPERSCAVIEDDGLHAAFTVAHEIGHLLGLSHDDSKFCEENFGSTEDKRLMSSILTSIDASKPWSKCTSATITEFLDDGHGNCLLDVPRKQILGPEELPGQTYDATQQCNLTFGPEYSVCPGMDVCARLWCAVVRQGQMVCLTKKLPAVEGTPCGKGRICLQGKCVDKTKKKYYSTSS
human ADAMTS4, sequence (O75173 213-837): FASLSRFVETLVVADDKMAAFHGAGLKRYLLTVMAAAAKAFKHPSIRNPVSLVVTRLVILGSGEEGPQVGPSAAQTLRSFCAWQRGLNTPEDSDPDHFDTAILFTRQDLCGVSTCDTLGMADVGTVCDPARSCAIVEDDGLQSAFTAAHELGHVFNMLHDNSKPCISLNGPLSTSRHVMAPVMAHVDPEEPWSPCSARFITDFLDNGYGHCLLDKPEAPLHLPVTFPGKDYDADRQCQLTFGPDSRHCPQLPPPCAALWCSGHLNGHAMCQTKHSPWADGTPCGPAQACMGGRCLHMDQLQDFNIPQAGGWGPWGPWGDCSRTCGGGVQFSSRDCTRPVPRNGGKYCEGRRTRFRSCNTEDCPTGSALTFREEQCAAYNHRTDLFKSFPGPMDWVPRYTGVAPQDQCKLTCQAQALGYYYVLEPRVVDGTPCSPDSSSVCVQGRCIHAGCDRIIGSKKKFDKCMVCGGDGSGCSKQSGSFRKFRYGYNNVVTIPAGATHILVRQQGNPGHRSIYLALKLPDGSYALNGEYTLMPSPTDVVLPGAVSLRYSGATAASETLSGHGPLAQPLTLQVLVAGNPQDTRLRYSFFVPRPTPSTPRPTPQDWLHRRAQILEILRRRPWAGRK
human ADAMTS6, sequence (Q9UKP5 other isoform, or with tags, fused parts or gaps): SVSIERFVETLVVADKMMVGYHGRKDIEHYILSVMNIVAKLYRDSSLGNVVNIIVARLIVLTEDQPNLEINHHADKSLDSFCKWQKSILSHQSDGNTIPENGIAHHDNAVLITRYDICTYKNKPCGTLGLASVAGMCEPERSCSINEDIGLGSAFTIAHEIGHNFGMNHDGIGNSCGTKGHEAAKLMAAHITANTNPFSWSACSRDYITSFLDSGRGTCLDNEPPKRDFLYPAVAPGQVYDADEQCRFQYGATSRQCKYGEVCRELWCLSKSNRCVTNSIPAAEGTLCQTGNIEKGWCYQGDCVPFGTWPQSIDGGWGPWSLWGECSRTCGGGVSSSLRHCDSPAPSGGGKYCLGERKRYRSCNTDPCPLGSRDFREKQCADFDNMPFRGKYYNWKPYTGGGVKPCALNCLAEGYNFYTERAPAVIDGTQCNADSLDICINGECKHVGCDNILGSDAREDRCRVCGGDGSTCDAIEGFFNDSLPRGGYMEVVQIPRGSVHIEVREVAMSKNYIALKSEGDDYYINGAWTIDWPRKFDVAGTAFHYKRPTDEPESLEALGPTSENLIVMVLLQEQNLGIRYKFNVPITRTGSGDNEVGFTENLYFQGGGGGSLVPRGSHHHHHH

Row | IC50 (human MMP13 [1]) | IC50 (human ADAMTS-5) | IC50 (rnADAMTS-5 (1-564-6H)) | IC50 (human TACE) | IC50 (human ADAMTS6) | IC50 (human MMP13 [2]) | IC50 (human ADAMTS4; [3]) | Compound | IC50 (human ADAMTS4) | IC50 (human MMP14)
1 | > 100 nM | > 100 nM | > 100 nM | > 100 nM | 0.001 to 25 nM |  | > 100 nM | C[C@H]1CN(C(=O)CC[C@@]2(C)NC(=O)NC2=O)CCN1c1ccc(Cl)c(OC(F)(F)F)c1 [Cpd 86, (5R)-5-[3-[(3S)-4-[4-chloro-3-(trifluoromethoxy)phenyl]-3-methyl-piperazin-1-yl]-3-oxo-propyl]-5-methyl-imidazolidine-2,4-dione] |  | > 100 nM
2 |  | > 100 nM | > 100 nM | > 100 nM | 25 to 50 nM | > 100 nM | > 100 nM | COc1cc(N2CCN(C(=O)CCC3(C)NC(=O)NC3=O)CC2)c(C)cc1Cl (centres unmarked) [Cpd 34, 5-[3-[4-(4-chloro-5-methoxy-2-methyl-phenyl)piperazin-1-yl]-3-oxo-propyl]-5-methyl-imidazolidine-2,4-dione] |  | 
3 |  | > 100 nM | > 100 nM | > 100 nM | 0.001 to 25 nM | > 100 nM | > 100 nM | COc1cc(N2CCN(C(=O)CC[C@H]3NC(=O)NC3=O)C[C@@H]2C)cc(F)c1F [Cpd 129, (5R)-5-[3-[(3S)-4-(3,4-difluoro-5-methoxy-phenyl)-3-methyl-piperazin-1-yl]-3-oxo-propyl]imidazolidine-2,4-dione] |  | 
4 |  | > 100 nM | > 100 nM | > 100 nM | 25 to 50 nM | > 100 nM | > 100 nM | COc1cc(OC)cc(N2CCN(C(=O)CC[C@H]3NC(=O)NC3=O)C[C@@H]2C)c1 [Cpd 132, (5R)-5-[3-[(3 S)-4-(3,5-dimethoxyphenyl)-3-methyl-piperazin-1-yl]-3-oxo-propyl]imidazolidine-2,4-dione] |  | 
5 |  | > 100 nM | 50 to 100 nM | > 100 nM | 0.001 to 25 nM | > 100 nM | > 100 nM | COc1cc(N2CCN(C(=O)CCC3(C)NC(=O)NC3=O)CC2)cc(F)c1Cl (centres unmarked) [Cpd 38, 5-[3-[4-(4-chloro-3-fluoro-5-methoxy-phenyl)piperazin-1-yl]-3-oxo-propyl]-5-methyl-imidazolidine-2,4-dione] |  | 
6 |  | > 100 nM | > 100 nM | > 100 nM | 0.001 to 25 nM | > 100 nM | > 100 nM | COc1cc(N2CCN(C(=O)CCC3(C)NC(=O)NC3=O)CC2)cc(OC)c1Cl (centres unmarked) [Cpd 31, 5-[3-[4-(4-chloro-3,5-dimethoxy-phenyl)piperazin-1-yl]-3-oxo-propyl]-5-methyl-imidazolidine-2,4-dione] |  | 
7 |  | 25 to 50 nM | 0.001 to 25 nM | > 100 nM | 0.001 to 25 nM | > 100 nM | > 100 nM | COc1cc(N2CCN(C(=O)[C@@H](C)C[C@@]3(C)NC(=O)NC3=O)C[C@@H]2C)ccc1Cl (stereo in doubt) [Cpd 41, 5-[3-[4-(4-chloro-3-methoxy-phenyl)-3-methyl-piperazin-1-yl]-2-methyl-3-oxo-propyl]-5-methyl-imidazolidine-2,4-dione] |  | > 100 nM
8 |  | > 100 nM | > 100 nM | > 100 nM | 0.001 to 25 nM | > 100 nM | > 100 nM | COc1cc(N2CCN(C(=O)CC[C@H]3NC(=O)NC3=O)C[C@@H]2C)ccc1Cl [Cpd 133, (5R)-5-[3-[(3 S)-4-(4-chloro-3-methoxy-phenyl)-3-methyl-piperazin-1-yl]-3-oxo-propyl]imidazolidine-2,4-dione] |  | 
9 |  | 50 to 100 nM | 50 to 100 nM | > 100 nM | 0.001 to 25 nM | > 100 nM | > 100 nM | COc1cc(N2CCN(C(=O)CC[C@H]3NC(=O)NC3=O)C[C@@H]2C)cc(F)c1Cl [Cpd 144, (5R)-5-[3-[(3 S)-4-(4-chloro-3-fluoro-5-methoxy-phenyl)-3-methyl-piperazin-1-yl]-3-oxo-propyl]imidazolidine-2,4-dione] |  | 
10 |  | 25 to 50 nM | 50 to 100 nM | > 100 nM | 0.001 to 25 nM | > 100 nM | > 100 nM | COc1cc(N2CCN(C(=O)CCC3(C)NC(=O)NC3=O)C[C@@H]2C)ccc1Cl (stereo partly drawn) [Cpd 24, 5-[3-[(3S)-4-(4-chloro-3-methoxy-phenyl)-3-methyl-piperazin-1-yl]-3-oxo-propyl]-5-methyl-imidazolidine-2,4-dione] |  | > 100 nM
11 |  | > 100 nM | > 100 nM | > 100 nM | 50 to 100 nM | > 100 nM | > 100 nM | COc1cc(N2CCN(C(=O)CC[C@H]3NC(=O)NC3=O)C[C@@H]2C)c(C)cc1Cl [Cpd 142, (5R)-5-[3-[(3S)-4-(4-chloro-5-methoxy-2-methyl-phenyl)-3-methyl-piperazin-1-yl]-3-oxo-propyl]imidazolidine-2,4-dione] |  | 

The next lines start with the molecule.

Row | Compound | IC50 (human MMP13 [1]) | IC50 (human ADAMTS-5) | IC50 (rnADAMTS-5 (1-564-6H)) | IC50 (human TACE) | IC50 (human ADAMTS6) | IC50 (human MMP13 [2]) | IC50 (human ADAMTS4; [3]) | IC50 (human ADAMTS4) | IC50 (human MMP14)
12 | COc1cc(N2CCN(C(=O)[C@@H](C)C[C@@]3(c4ccccn4)NC(=O)NC3=O)CC2)cc(F)c1F [Cpd 54, (5 S)-5-[(2S)-3-[4-(3,4-difluoro-5-methoxy-phenyl)piperazin-1-yl]-2-methyl-3-oxo-propyl]-5-(2-pyridyl)imidazolidine-2,4-dione] | > 100 nM | 0.001 to 25 nM | 0.001 to 25 nM | > 100 nM | 0.001 to 25 nM |  |  | 25 to 50 nM | > 100 nM
13 | COc1cc(N2CCN(C(=O)[C@@H](C)C[C@@]3(C)NC(=O)NC3=O)CC2)cc(F)c1F (stereo in doubt) [Cpd 43, 5-[3-[4-(3,4-difluoro-5-methoxy-phenyl)piperazin-1-yl]-2-methyl-3-oxo-propyl]-5-methyl-imidazolidine-2,4-dione] |  | 0.001 to 25 nM | 0.001 to 25 nM | > 100 nM | 0.001 to 25 nM | > 100 nM |  | 25 to 50 nM | > 100 nM
14 | COc1cc(N2CCN(C(=O)[C@@H](C)C[C@@]3(CN4CCC(F)(F)C4)NC(=O)NC3=O)CC2)cc(F)c1F (stereo in doubt) [Cpd 52, 5-[3-[4-(3,4-difluoro-5-methoxy-phenyl)piperazin-1-yl]-2-methyl-3-oxo-propyl]-5-[(3,3-difluoropyrrolidin-1-yl)methyl]imidazolidine-2,4-dione] | > 100 nM | 50 to 100 nM | 50 to 100 nM | > 100 nM | 0.001 to 25 nM |  | > 100 nM |  | > 100 nM
15 | COc1cc(N2CCN(C(=O)CC[C@@]3(C4CC4)NC(=O)NC3=O)C[C@@H]2C)cc(F)c1F [Cpd 37, (5S)-5-cyclopropyl-5-[3-[(3 S)-4-(3,4-difluoro-5-methoxy-phenyl)-3-methyl-piperazin-1-yl]-3-oxo-propyl]imidazolidine-2,4-dione] |  | 0.001 to 25 nM | 0.001 to 25 nM | > 100 nM | 0.001 to 25 nM | > 100 nM |  | 25 to 50 nM | > 100 nM
16 | COc1cc(N2CCN(C(=O)[C@@H](C)C[C@@]3(C)NC(=O)NC3=O)C[C@@H]2C)cc(F)c1F (mixture of isomers) [Cpd 42, 5-[3-[(3S)-4-(3,4-difluoro-5-methoxy-phenyl)-3-methyl-piperazin-1-yl]-2-methyl-3-oxo-propyl]-5-methyl-imidazolidine-2,4-dione] |  | 0.001 to 25 nM | 0.001 to 25 nM | > 100 nM | 0.001 to 25 nM | > 100 nM |  | 25 to 50 nM | > 100 nM
17 | COc1cc(F)cc(N2CCN(C(=O)CCC3(c4cccnc4)NC(=O)NC3=O)CC2)c1 (centres unmarked) [Cpd 23, 5-[3-[4-(3-fluoro-5-methoxy-phenyl)piperazin-1-yl]-3-oxo-propyl]-5-(3-pyridyl)imidazolidine-2,4-dione] |  | 50 to 100 nM | 50 to 100 nM | > 100 nM | 25 to 50 nM | > 100 nM |  | 50 to 100 nM | 
18 | COc1cc(F)cc(N2CCN(C(=O)[C@@H](C)C[C@@]3(C4CC4)NC(=O)NC3=O)CC2)c1 [Cpd 26, (5 S)-5-cyclopropyl-5-[(2S)-3-[4-(3-fluoro-5-methoxy-phenyl)piperazin-1-yl]-2-methyl-3-oxo-propyl]imidazolidine-2,4-dione] |  | 0.001 to 25 nM | 0.001 to 25 nM | > 100 nM | 0.001 to 25 nM | > 100 nM |  | 0.001 to 25 nM | 
19 | COc1cc(N2CCN(C(=O)[C@@H](C)C[C@@]3(C)NC(=O)NC3=O)CC2)cc(OC)c1Cl (stereo in doubt) [Cpd 40, 5-[3-[4-(4-chloro-3,5-dimethoxy-phenyl)piperazin-1-yl]-2-methyl-3-oxo-propyl]-5-methyl-imidazolidine-2,4-dione] |  | 50 to 100 nM | > 100 nM | > 100 nM | 0.001 to 25 nM | > 100 nM |  | 25 to 50 nM | 
